Reference: patent US6809115B2, “METHODS AND COMPOSITIONS FOR THE TREATMENT OF DIABETES, THE REDUCTION OF BODY FAT, IMPROVEMENT OF INSULIN SENSITIVITY, REDUCTION OF HYPERGLYCEMIA, AND REDUCTION OF HYPERCHOLESTEROLEMIA WITH CHROMIUM COMPLEXES, CONJUGATED FATTY ACIDS, AND/OR CONJUGATED FATTY ALCOHOLS” (Nutrition 21, Inc., priority 2000, dated 2004)

Legend:
[1] = patients treated for obesity; cited from earlier work
[2] = rats, oral CrCl3, co-administered NSAID; cited from earlier work
[3] = in vivo; cited from earlier work
[4] = cited from earlier work
[5] = growing animals; cited from earlier work
[6] = system: human skeletal muscle culture; assay: glucose uptake in human skeletal muscle culture; format: cell-based; details: FIGS. 1 and 2, axis in pico Moles per milligram
From the text: FIG. 2 graphs the effect of CP+CLA on glucose uptake in human skeletal muscle culture.
FIG. 3 illustrates the effect of CP+CLA on glucose uptake in human skeletal muscle culture.
Embodiments of the present invention include compositions which contain a conjugated fatty acid or conjugated fatty alcohol in combination with at least one chromium complex. Additionally, uses of the compositions disclosed herein to treat diabetes and/or obesity are provided. The co-administration of a conjugated fatty acid or conjugated fatty alcohol and at least one chromium complex provides a number of advantages over conventional pharmaceutical regimes for the treatment of diabetes and promotion of weight loss. One advantage of the compositions described herein over conventional treatment regimes for diabetes (such as injection of insulin) and weight loss is that compositions comprising a conjugated compound such as a conjugated fatty acid or conjugated fatty alcohol and at least one chromium complex have no known side effects while still providing efficacy in glucose uptake and weight loss. […] Those bars on FIGS. 1, 2, and 3 representing Chromium Picolinate (CP) and Conjugated Linoleic Acid (CLA) are measured in nanograms per milliliter.

In the case of CC(C)CC(N(C)C)C1(c2ccc(Cl)cc2)CCC1 (stereo not drawn) [Sibutramine], the side effects [1] is listed as “increases blood pressure in a subset of patients”.

In the case of CC(=O)Oc1ccccc1C(=O)O [aspirin, acetylsalicylic acid], the chromium absorption [2] is listed as “facilitated”.

For CCCCCCCCCCC[C@@H](C[C@@H]1OC(=O)[C@H]1CCCCCC)OC(=O)[C@H](CC(C)C)NC=O [orlistat], the side effects [1] is given as “may have unpleasant gastrointestinal side effects”.

For chromium picolinate, the “weight loss and body composition” value [3] is listed as “modest weight loss and changes in body composition”.

For conjugated linoleic acid [CLA], the “effect of CLA alone in obese subjects” value ([4]; added to standard diet and exercise) is given as “no effect”, the fat mass ([4]; subgroup who did not follow diet and exercise well and gained lean body mass, placebo subjects had increase) is given as “reduction in fat mass” and the “reduction of fat gain” value [5] is given as 25%-70%. The glucose uptake ([6]; basal (without insulin)) was “no effect” and the glucose uptake ([6]; stimulated (with insulin)) was “no effect”.
